Columns and labels:
Test in all cases: relative viability (nuclei count vs DMSO), 5 days (fraction); higher = more cells survive
[1] = compound: C1CNCCC1C2=CC(=NN2)C3=CC=NC=C3 + Cc1nc(Nc2ncc(C(=O)Nc3c(C)cccc3Cl)s2)cc(N2CCN(CCO)CC2)n1 [Dasatinib] (partner 0.075 µM)
Method in brief: (§1)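 Lung cancer cell lines in 1536-well plates got either a single drug or a fixed anchor-drug dose together with five library-drug doses (not always all listed) in √10 steps, by pin tool, on the day after seeding. Nuclei were counted after 5 days, and relative viability is the treated-to-vehicle ratio of nuclei counts. Values are medians of duplicate plates.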

[2] = compound: C[C@@H](N)c1ccc(C(=O)Nc2ccnc3[nH]ccc23)cc1 + CC(=O)c1c(C)c2cnc(Nc3ccc(N4CCNCC4)cn3)nc2n(C2CCCC2)c1=O [Palbociclib] (partner 0.5 µM)
Method in brief: as §1

[3] = compound: C[C@@H](N)c1ccc(C(=O)Nc2ccnc3[nH]ccc23)cc1 + CC1(C)CCC(c2ccc(Cl)cc2)=C(CN2CCN(c3ccc(C(=O)NS(=O)(=O)c4ccc(N[C@H](CCN5CCOCC5)CSc5ccccc5)c(S(=O)(=O)C(F)(F)F)c4)cc3)CC2)C1 [Navitoclax] (partner 0.5 µM)
Method in brief: as §1

[4] = compound: O[C@H]1CC[C@H](Nc2ncc3nc(Nc4c(F)cc(F)cc4F)n([C@H]4CCOC4)c3n2)CC1 [Tanzisertib] + NC(=O)Nc1cc(-c2cccc(F)c2)sc1C(=O)N[C@H]1CCCNC1 [AZD7762] (partner 0.2 µM)
Method in brief: as §1

NCI-H647
relative viability ([1]; first compound 0.08 µM): 0.176 | relative viability ([1]; first compound 0.8 µM): 0.169 | relative viability ([1]; first compound 2.53 µM): 0.187 | relative viability ([1]; first compound 8 µM): 0.161 | relative viability ([2]; first compound 0.04 µM): 0.472 | relative viability ([2]; first compound 0.1265 µM): 0.496 | relative viability ([2]; first compound 0.4 µM): 0.417 | relative viability ([2]; first compound 1.265 µM): 0.308 | relative viability ([2]; first compound 4 µM): 0.333 | relative viability ([3]; first compound 0.04 µM): 0.978 | relative viability ([3]; first compound 0.1265 µM): 1.19 | relative viability ([3]; first compound 0.4 µM): 0.942 | relative viability ([3]; first compound 4 µM): 0.762 | relative viability ([4]; first compound 0.08 µM): 0.675 | relative viability ([4]; first compound 0.253 µM): 0.549 | relative viability ([4]; first compound 0.8 µM): 0.546 | relative viability ([4]; first compound 2.53 µM): 0.534 | relative viability ([4]; first compound 8 µM): 0.18

NCI-H727
relative viability ([1]; first compound 0.08 µM): 0.489 | relative viability ([1]; first compound 0.8 µM): 0.5 | relative viability ([1]; first compound 2.53 µM): 0.33 | relative viability ([1]; first compound 8 µM): 0.328 | relative viability ([2]; first compound 0.04 µM): 0.667 | relative viability ([2]; first compound 0.1265 µM): 0.714 | relative viability ([2]; first compound 0.4 µM): 0.746 | relative viability ([2]; first compound 1.265 µM): 0.748 | relative viability ([2]; first compound 4 µM): 0.798 | relative viability ([3]; first compound 0.04 µM): 0.524 | relative viability ([3]; first compound 0.1265 µM): 0.579 | relative viability ([3]; first compound 0.4 µM): 0.676 | relative viability ([3]; first compound 1.265 µM): 0.484 | relative viability ([3]; first compound 4 µM): 0.411 | relative viability ([4]; first compound 0.08 µM): 0.59 | relative viability ([4]; first compound 0.253 µM): 0.652 | relative viability ([4]; first compound 0.8 µM): 0.524 | relative viability ([4]; first compound 2.53 µM): 0.544 | relative viability ([4]; first compound 8 µM): 0.599

NCI-H838
relative viability ([1]; first compound 0.08 µM): 0.308 | relative viability ([1]; first compound 0.8 µM): 0.295 | relative viability ([1]; first compound 2.53 µM): 0.277 | relative viability ([1]; first compound 8 µM): 0.3 | relative viability ([2]; first compound 0.04 µM): 0.183 | relative viability ([2]; first compound 0.1265 µM): 0.221 | relative viability ([2]; first compound 0.4 µM): 0.229 | relative viability ([2]; first compound 1.265 µM): 0.192 | relative viability ([2]; first compound 4 µM): 0.183 | relative viability ([3]; first compound 0.04 µM): 1.08 | relative viability ([3]; first compound 0.1265 µM): 1.1 | relative viability ([3]; first compound 0.4 µM): 0.84 | relative viability ([3]; first compound 1.265 µM): 0.714 | relative viability ([3]; first compound 4 µM): 0.524 | relative viability ([4]; first compound 0.08 µM): 0.964 | relative viability ([4]; first compound 0.253 µM): 0.962 | relative viability ([4]; first compound 0.8 µM): 0.889 | relative viability ([4]; first compound 2.53 µM): 0.909 | relative viability ([4]; first compound 8 µM): 0.972

NCI-H1355
relative viability ([1]; first compound 0.08 µM): 0.651 | relative viability ([1]; first compound 0.8 µM): 0.718 | relative viability ([1]; first compound 2.53 µM): 0.798 | relative viability ([1]; first compound 8 µM): 0.695 | relative viability ([2]; first compound 0.04 µM): 0.441 | relative viability ([2]; first compound 0.1265 µM): 0.422 | relative viability ([2]; first compound 0.4 µM): 0.403 | relative viability ([2]; first compound 1.265 µM): 0.427 | relative viability ([2]; first compound 4 µM): 0.393 | relative viability ([3]; first compound 0.04 µM): 1.01 | relative viability ([3]; first compound 0.1265 µM): 0.986 | relative viability ([3]; first compound 0.4 µM): 1.04 | relative viability ([3]; first compound 4 µM): 0.748 | relative viability ([4]; first compound 0.08 µM): 0.847 | relative viability ([4]; first compound 0.253 µM): 0.822 | relative viability ([4]; first compound 0.8 µM): 0.813 | relative viability ([4]; first compound 2.53 µM): 0.71 | relative viability ([4]; first compound 8 µM): 0.708

NCI-H1395
relative viability ([1]; first compound 0.08 µM): 0.399 | relative viability ([1]; first compound 0.8 µM): 0.345 | relative viability ([1]; first compound 2.53 µM): 0.381 | relative viability ([1]; first compound 8 µM): 0.471 | relative viability ([2]; first compound 0.04 µM): 0.583 | relative viability ([2]; first compound 0.1265 µM): 0.639 | relative viability ([2]; first compound 0.4 µM): 0.597 | relative viability ([2]; first compound 4 µM): 0.577 | relative viability ([3]; first compound 0.04 µM): 1.04 | relative viability ([3]; first compound 0.1265 µM): 1.32 | relative viability ([3]; first compound 0.4 µM): 1.11 | relative viability ([3]; first compound 4 µM): 0.876 | relative viability ([4]; first compound 0.08 µM): 0.439 | relative viability ([4]; first compound 0.253 µM): 0.399 | relative viability ([4]; first compound 0.8 µM): 0.382 | relative viability ([4]; first compound 2.53 µM): 0.394 | relative viability ([4]; first compound 8 µM): 0.425

NCI-H1437
relative viability ([1]; first compound 0.08 µM): 0.464 | relative viability ([1]; first compound 0.8 µM): 0.381 | relative viability ([1]; first compound 2.53 µM): 0.406 | relative viability ([1]; first compound 8 µM): 0.45 | relative viability ([2]; first compound 0.04 µM): 0.335 | relative viability ([2]; first compound 0.1265 µM): 0.315 | relative viability ([2]; first compound 0.4 µM): 0.386 | relative viability ([2]; first compound 1.265 µM): 0.369 | relative viability ([2]; first compound 4 µM): 0.482 | relative viability ([3]; first compound 0.04 µM): 1.11 | relative viability ([3]; first compound 0.1265 µM): 1.06 | relative viability ([3]; first compound 0.4 µM): 1.15 | relative viability ([3]; first compound 1.265 µM): 1.1 | relative viability ([3]; first compound 4 µM): 0.993 | relative viability ([4]; first compound 0.08 µM): 1.15 | relative viability ([4]; first compound 0.253 µM): 1.15 | relative viability ([4]; first compound 0.8 µM): 1.12 | relative viability ([4]; first compound 2.53 µM): 1.12 | relative viability ([4]; first compound 8 µM): 1.12

NCI-H1651
relative viability ([1]; first compound 0.08 µM): 0.381 | relative viability ([1]; first compound 0.8 µM): 0.404 | relative viability ([1]; first compound 2.53 µM): 0.348 | relative viability ([1]; first compound 8 µM): 0.486 | relative viability ([2]; first compound 0.04 µM): 0.509 | relative viability ([2]; first compound 0.1265 µM): 0.567 | relative viability ([2]; first compound 0.4 µM): 0.554 | relative viability ([2]; first compound 1.265 µM): 0.601 | relative viability ([2]; first compound 4 µM): 0.567 | relative viability ([3]; first compound 0.04 µM): 1.07 | relative viability ([3]; first compound 0.1265 µM): 1 | relative viability ([3]; first compound 0.4 µM): 1.11 | relative viability ([3]; first compound 1.265 µM): 1.26 | relative viability ([3]; first compound 4 µM): 1.11 | relative viability ([4]; first compound 0.08 µM): 0.507 | relative viability ([4]; first compound 0.253 µM): 0.464 | relative viability ([4]; first compound 0.8 µM): 0.43 | relative viability ([4]; first compound 2.53 µM): 0.426 | relative viability ([4]; first compound 8 µM): 0.378

NCI-H1666
relative viability ([1]; first compound 0.08 µM): 0.718 | relative viability ([1]; first compound 0.8 µM): 0.941 | relative viability ([1]; first compound 2.53 µM): 0.821 | relative viability ([1]; first compound 8 µM): 0.783 | relative viability ([2]; first compound 0.04 µM): 0.661 | relative viability ([2]; first compound 0.1265 µM): 0.63 | relative viability ([2]; first compound 0.4 µM): 0.636 | relative viability ([2]; first compound 1.265 µM): 0.616 | relative viability ([2]; first compound 4 µM): 0.668 | relative viability ([3]; first compound 0.04 µM): 1.05 | relative viability ([3]; first compound 0.1265 µM): 1.21 | relative viability ([3]; first compound 0.4 µM): 1.09 | relative viability ([3]; first compound 1.265 µM): 1.19 | relative viability ([3]; first compound 4 µM): 1.17 | relative viability ([4]; first compound 0.08 µM): 0.939 | relative viability ([4]; first compound 0.253 µM): 0.905 | relative viability ([4]; first compound 0.8 µM): 0.848 | relative viability ([4]; first compound 2.53 µM): 0.9 | relative viability ([4]; first compound 8 µM): 0.684

NCI-H1734
relative viability ([1]; first compound 0.08 µM): 0.424 | relative viability ([1]; first compound 0.8 µM): 0.533 | relative viability ([1]; first compound 2.53 µM): 0.527 | relative viability ([1]; first compound 8 µM): 0.529 | relative viability ([2]; first compound 0.04 µM): 0.316 | relative viability ([2]; first compound 0.1265 µM): 0.355 | relative viability ([2]; first compound 0.4 µM): 0.325 | relative viability ([2]; first compound 1.265 µM): 0.338 | relative viability ([2]; first compound 4 µM): 0.277 | relative viability ([3]; first compound 0.04 µM): 0.943 | relative viability ([3]; first compound 0.1265 µM): 0.82 | relative viability ([3]; first compound 0.4 µM): 0.81 | relative viability ([3]; first compound 4 µM): 0.443 | relative viability ([4]; first compound 0.08 µM): 0.596 | relative viability ([4]; first compound 0.253 µM): 0.532 | relative viability ([4]; first compound 0.8 µM): 0.558 | relative viability ([4]; first compound 2.53 µM): 0.534 | relative viability ([4]; first compound 8 µM): 0.526

— the supplement of paper PMC10307832
